According to PubChem BioAssay (NCI):
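Grown in 96-well plates, cells were treated for 48 hours with each compound at five concentrations. Insufficient inhibition: endpoint recorded as highest concentration tested. TGI marks complete inhibition of growth.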

Legend:
Assay in all cases: DTP human tumour cell line panel, 48 h
786-0 renal = tested on: 786-0 renal
BT-549 breast = tested on: BT-549 breast
CCRF-CEM leukemia = tested on: CCRF-CEM leukemia
HCT-116 colon = tested on: HCT-116 colon
LOX IMVI melanoma = tested on: LOX IMVI melanoma
MALME-3M melanoma = tested on: MALME-3M melanoma
MDA-MB-435 = tested on: MDA-MB-435
NCI-H522 lung = tested on: NCI-H522 lung
PC-3 prostate = tested on: PC-3 prostate
SF-268 CNS = tested on: SF-268 CNS
SN12C renal = tested on: SN12C renal
SR leukemia = tested on: SR leukemia
SW-620 colon = tested on: SW-620 colon
UACC-62 melanoma = tested on: UACC-62 melanoma

Row | Structure (SMILES) | TGI (786-0 renal) [µM] | TGI (BT-549 breast) [µM] | TGI (CCRF-CEM leukemia) [µM] | TGI (HCT-116 colon) [µM] | TGI (LOX IMVI melanoma) [µM] | TGI (MALME-3M melanoma) [µM] | TGI (MDA-MB-435) [µM] | TGI (NCI-H522 lung) [µM] | TGI (PC-3 prostate) [µM] | TGI (SF-268 CNS) [µM] | TGI (SN12C renal) [µM] | TGI (SR leukemia) [µM] | TGI (SW-620 colon) [µM] | TGI (UACC-62 melanoma) [µM]
1 | COC(=O)C(Cc1c[nH]c2ccccc12)N=C1Nc2ccncc2S(=O)(=O)N1c1cccc(OC(C)C)c1 (stereo not drawn) | > 100 | > 100 | > 100 | > 100 | > 100 | > 100 | > 100 | > 100 | > 100 | > 100 | > 100 | 79.7 | > 100 | > 100
2 | CC(C)(CCC(C)(C)N1OC1c1ccccc1)N1OC1c1ccccc1 (stereo not drawn) | > 100 | > 100 | 35 | > 100 | > 100 | > 100 | > 100 | 22.2 | > 100 | > 100 | > 100 | 40.3 | > 100 | > 100
3 | CCc1ccc2c(c1)N(CC(C)CN(C)C)c1ccccc1S2 (stereo not drawn) | 12.2 | 26.5 | 4.99 | 11 | 10.3 | 8.37 | 8.13 | 7.96 | 17.1 | 20.5 | 19.5 | 11.4 | 14.6 | 13.1
4 | O=[N+]([O-])c1ccc(C(O)(C#CCN2CCCC2)c2ccccc2)cc1 (stereo not drawn) | > 100 | > 100 | 57.5 | > 100 | 43.9 | 30.4 | 80.1 | 54.9 | > 100 | > 100 | > 100 | 44.2 | > 100 | 87.4
5 | CCCc1[nH]c2ccccc2c1-c1c(CCC)[nH]c2ccccc12 | 31.4 | 35.6 | > 100 | 15.2 | 17.3 | 32.7 | > 63.7 | 34.2 | 23.4 | 28.3 | 23.2 | > 100 | 23.7 | 34.8
6 | CC(=O)O[C@H]1CC[C@@]2(C)C(=CC[C@@H]3[C@@H]2CC[C@]2(C)c4nc(Cl)ccc4C[C@@H]32)C1 | > 100 | > 100 | 58.4 | > 100 | > 100 | > 100 | > 100 | > 100 | > 100 | > 100 | > 100 | > 100 | > 100 | 54.3
7 | CN(C)CCNC(=O)c1cccc2c(NC(CCC(N)=O)C(=O)O)c3ccccc3nc12 (stereo not drawn) | > 100 | 33.4 | > 100 | > 100 | 35.6 | 19.5 | 23.1 | 22.3 | 23.5 | 28.3 | 81 | > 100 | > 100 | > 100
